Reference: patent US6037361A, “Fluorinated butyric acids and their derivatives as inhibitors of matrix metalloproteinases” (Warner-Lambert Company, priority 1998, dated 2000)

Columns and labels:
[1] = test system: human ovarian carcinoma xenografts; settings: mice bearing human ovarian carcinoma xenografts; cited from earlier work
[2] = target: T1, SCD (stromelysin-1 catalytic domain) (Homo sapiens, UniProt P08254); assay: IC50 versus SCD with thiopeptolide substrate Ac-Pro-Leu-Gly-thioester-Leu-Leu-Gly-OEt; assay type: biochemical
T1 construct: SCD (stromelysin-1 catalytic domain); made in house; host or cells: Escherichia coli
T1 sequence (P08254 100-272 limits assumed): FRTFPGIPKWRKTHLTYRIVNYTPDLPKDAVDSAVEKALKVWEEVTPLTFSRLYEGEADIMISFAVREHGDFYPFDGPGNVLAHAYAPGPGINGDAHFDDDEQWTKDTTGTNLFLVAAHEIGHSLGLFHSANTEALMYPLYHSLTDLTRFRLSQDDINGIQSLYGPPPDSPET
Method: (§1) Experiments were carried out with the catalytic domains of the proteinases. […] IC50 values were determined using a thiopeptolide substrate, Ac-Pro-Leu-Gly-thioester-Leu-Leu-Gly-OEt (Ye Q. -Z., Johnson L. L., Hupe D. J., and Baragi V., "Purification and Characterization of the Human Stromelysin Catalytic Domain Expressed in Escherichia coli", Biochemistry, 1992;31:11231-11235).

[3] = target: GCD (recombinant gelatinase A catalytic domain); assay: IC50 versus GCD with thiopeptolide substrate Ac-Pro-Leu-Gly-thioester-Leu-Leu-Gly-OEt; assay type: biochemical
Method: as §1

[4] = test system: bovine nasal and pig articular cartilage; settings: bovine nasal and pig articular cartilage models for arthritis; cited from earlier work

| Compound | tumor burden and survival [1] | IC50 [2] | IC50 [3] | formation of collagen fragments and proteoglycan fragments [4] |
| --- | --- | --- | --- | --- |
| CNC(=O)[C@H](Cc1ccccc1)NC(=O)[C@H](CC(C)C)[C@H](CSc1cccs1)C(=O)NO [BB-94] | decreased the tumor burden and prolonged the survival |  |  |  |
| O=C(O)CC(F)(F)C(=O)c1ccc2oc3ccccc3c2c1 [Example 1, 4-Dibenzofuran-2-yl-3,3-difluoro-4-oxo-butyric acid] |  | 24 µM | 1.95 µM |  |
| O=C(CC(F)(F)C(=O)O)c1ccc2oc3ccccc3c2c1 [Example 2, 4-Dibenzofuran-2-yl-2,2-difluoro-4-oxo-butric acid] |  | > 100 µM | 93.6 µM |  |
| TIMP-1: natural endogenous inhibitors of MMPs (TIMPs) |  |  |  | prevented the formation of collagen fragments, but not proteoglycan fragments |
